How the values were obtained:
BTK = BTK (Homo sapiens (Human), UniProt Q06187); experiment: Z'-LYTE kinase inhibition assay against BTK; format: biochemical; conditions: for inhibition at 0.1 µM: compound at 100 nM, ATP concentration at Km; for IC50: series of concentrations, GraphPad Prism 5
Outline: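 Compounds were titrated over 10 points (3-fold steps, 1% DMSO) against BTK (1.04-10.4 ng) using Tyr 01 substrate at 2 μM and ATP at Km, pH 7.5 HEPES buffer with MgCl2 and EGTA. After one hour each of reaction and development at room temperature, fluorescence gave percent inhibition and IC50.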

OCI-Ly10 cells = experiment: OCI-Ly10 cell proliferation assay (Alamar Blue, 72 hours); format: cell-based; conditions: Homo sapiens
Experimental: OCI-Ly10 cells were cultured in Iscove's DMEM supplemented with 20% fetal bovine serum and 1× penicillin/streptomycin/glutamine. The cells were maintained in T175 flasks under 5% CO2 in a 37 ° C. humidified incubator for 5 days prior to plating and assay.
Cells were pooled by centrifugation (200 ref, 8 minutes) and resuspended in fresh medium to a concentration of 2.00E+05 cells/ml. 200 µl of the cell suspension was added to each well (40,000 cells/well) of a black-walled 96 well plate to which 1 μl of compound (n=3 per concentration) in 100% DMSO (0.5% final concentration) was added per well. Vehicle and cell free wells were also included in the assay. The dosed cells were cultured under normal conditions for 72 hours.
Cell proliferation is measured using the dye Alamar Blue (resazurin). Resazurin is reduced to resorufin by cellular enzymes and is fluorescent (544 nm excitation, 612 nm emission). Fluorescence intensity is proportional to cell number. Resazurin was prepared in PBS to a stock concentration of 440 μM. 40 μl of the 440 μM resazurin stock solution was added 3 hours prior to the 72 hour termination of the assay. The plate was returned to normal culture conditions and fluorescence measurements were collected using a Cytation3 multimode plate reader (Biotek) at 72 hours.
The scale utilized in Table 8 is as follows: ++ less than 50 nM and + greater than 50 nM.

BTK, sequence (Q06187 whole entry): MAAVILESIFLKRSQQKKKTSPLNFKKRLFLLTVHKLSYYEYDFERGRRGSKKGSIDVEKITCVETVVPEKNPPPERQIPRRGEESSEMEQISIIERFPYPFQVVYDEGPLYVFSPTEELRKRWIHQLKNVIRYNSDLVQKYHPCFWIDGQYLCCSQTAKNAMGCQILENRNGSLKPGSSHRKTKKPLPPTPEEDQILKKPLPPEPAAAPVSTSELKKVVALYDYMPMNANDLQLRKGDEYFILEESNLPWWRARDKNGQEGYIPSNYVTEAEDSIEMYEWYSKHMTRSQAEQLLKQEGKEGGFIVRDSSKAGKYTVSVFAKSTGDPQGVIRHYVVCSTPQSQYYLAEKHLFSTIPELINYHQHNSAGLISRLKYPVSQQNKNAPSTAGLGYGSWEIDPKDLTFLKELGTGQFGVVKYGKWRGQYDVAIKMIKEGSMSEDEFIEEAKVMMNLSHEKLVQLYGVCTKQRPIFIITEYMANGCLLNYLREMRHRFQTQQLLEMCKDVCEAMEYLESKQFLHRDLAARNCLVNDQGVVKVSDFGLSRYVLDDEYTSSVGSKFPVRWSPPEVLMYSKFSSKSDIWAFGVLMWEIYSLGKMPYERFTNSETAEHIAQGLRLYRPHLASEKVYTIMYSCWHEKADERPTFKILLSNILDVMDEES

Compound	inhibition at 0.1 µM (BTK) [%]	IC50 (BTK) [nM]	IC50 (OCI-Ly10 cells) [nM]
C=CC(=O)Nc1cccc(-c2cc(-c3cccnc3)cc3cnc(N)nc23)c1 [C035, N-(3-(2-amino-6-(pyridin-3-yl)quinazolin-8-yl)phenyl)acrylamide]	> 50	< 100	> 50
C=CC(=O)N1CCC(c2cc(-c3ccc(C(=O)Nc4cc(F)ccn4)cc3)n3cnccc23)C1 (centres unmarked) [C065, 4-(5-(1-acryloylpyrrolidin-3-yl)pyrrolo[1,2-c]pyrimidin-7-yl)-N-(4-fluoropyridin-2-yl)benzamide]	> 50	< 100	< 50
C=CC(=O)Nc1cccc(-c2cc(-c3ccc(Oc4ccccn4)cc3)cc3cncnc23)c1 [C099, N-(3-(6-(4-(pyridin-2-yloxy)phenyl)quinazolin-8-yl)phenyl)acrylamide]	> 50	< 100	< 50
C=CC(=O)Nc1cccc(-c2cc(-c3ccc(C(=O)N4CCCC4)cc3)cc3cncnc23)c1 [C102, N-(3-(6-(4-(pyrrolidine-1-carbonyl)phenyl)quinazolin-8-yl)phenyl)acrylamide]	> 50	< 100	> 50
C=CC(=O)Nc1cccc(-c2cc(-c3ccc(Oc4ncccc4F)cc3F)cc3cncnc23)c1 [C105, N-(3-(6-(2-fluoro-4-((3-fluoropyridin-2-yl)oxy)phenyl)quinazolin-8-yl)phenyl)acrylamide]	> 50	< 100	< 50
C=CC(=O)Nc1cccc(-c2cc(-c3ccc(Oc4ccccn4)cc3F)cc3cncnc23)c1 [C112, N-(3-(6-(2-fluoro-4-(pyridin-2-yloxy)phenyl)quinazolin-8-yl)phenyl)acrylamide]	> 50	< 100	< 50
C=CC(=O)Nc1cccc(-c2cc(-c3ccc(C(=O)Nc4cc(C5CC5)ccn4)cc3Cl)cc3cncnc23)c1 [C120, 4-(8-(3-acrylamidophenyl)quinazolin-6-yl)-3-chloro-N-(4-cyclopropylpyridin-2-yl)benzamide]	> 50	< 100	< 50
C=CC(=O)Nc1cccc(-c2cc(-c3ccc(Oc4ccccn4)cc3OC)cc3cncnc23)c1 [C121, N-(3-(6-(2-methoxy-4-(pyridin-2-yloxy)phenyl)quinazolin-8-yl)phenyl)acrylamide]	> 50	< 100	> 50
C=CC(=O)Nc1cccc(-c2cc(-c3ccc(C(=O)Nc4cc(C5CC5)ccn4)cc3)cc3cncnc23)c1 [C131, 4-(8-(3-acrylamidophenyl)quinazolin-6-yl)-N-(4-cyclopropylpyridin-2-yl)benzamide]	> 50	< 100	< 50
C=CC(=O)Nc1cccc(-c2cc(-c3ccc(Oc4ccccn4)c(F)c3)cc3cncnc23)c1 [C135, N-(3-(6-(3-fluoro-4-(pyridin-2-yloxy)phenyl)quinazolin-8-yl)phenyl)acrylamide]	> 50	< 100	< 50
C=CC(=O)Nc1cccc(-c2cc(-c3ccc(C(=O)Nc4cc(C5CC5)ccn4)c(F)c3)cc3cncnc23)c1 [C139, 4-(8-(3-acrylamidophenyl)quinazolin-6-yl)-N-(4-cyclopropylpyridin-2-yl)-2-fluorobenzamide]	> 50	< 100	< 50
C=CC(=O)Nc1cccc(-c2cc(-c3ccc(C(=O)Nc4ccccn4)c(Cl)c3)cc3cncnc23)c1 [C163, 4-(8-(3-acrylamidophenyl)quinazolin-6-yl)-2-chloro-N-(pyridin-2-yl)benzamide]	> 50	< 100	> 50
C=CC(=O)Nc1cccc(-c2cc(-c3ccc(Oc4cc(C5CC5)ccn4)cc3)cc3cncnc23)c1 [C183, N-(3-(6-(4-((4-cyclopropylpyridin-2-yl)oxy)phenyl)quinazolin-8-yl)phenyl)acrylamide]	> 50	< 100	< 50
C=CC(=O)Nc1cccc(-c2cc(-c3ccc(Oc4cc(C#N)ccn4)cc3)cc3cncnc23)c1 [C184, N-(3-(6-(4-((4-cyanopyridin-2-yl)oxy)phenyl)quinazolin-8-yl)phenyl)acrylamide]	> 50	< 100	< 50
C=CC(=O)N1CCC(c2nc(-c3ccc(C(=O)Nc4ccccn4)cc3)n3c(N)nccc23)C1 (centres unmarked) [C185, 4-(1-(1-acryloylpyrrolidin-3-yl)-5-amino-imidazo[1,5-c]pyrimidin-3-yl)-N-(pyridin-2-yl)benzamide]	> 50	< 100	< 50
C=CC(=O)N1CCC(c2nc(-c3ccc(Oc4ccccn4)cc3)n3c(N)nccc23)C1 (centres unmarked) [C186, 1-(3-(5-amino-3-(4-(pyridin-2-yloxy)phenyl)imidazo[1,5-c]pyrimidin-1-yl)pyrrolidin-1-yl)prop-2-en-1-one]	> 50	< 100	< 50
C=CC(=O)N1CCCC(c2nc(-c3ccc(Oc4ncccc4C#N)c(F)c3)n3c(N)nccc23)C1 (centres unmarked) [C234, 2-(4-(1-(1-acryloylpiperidin-3-yl)-5-amino-imidazo[1,5-c]pyrimidin-3-yl)-2-fluorophenoxy)nicotinonitrile]	–	< 100	–
CC#CC(=O)N1CCC(c2nc(-c3ccc(C(=O)Nc4cc(C5CC5)ccn4)cc3)n3c(N)ncnc23)C1 (centres unmarked) [C237, 4-(4-amino-8-(1-(but-2-ynoyl)pyrrolidin-3-yl)imidazo[1,5-a][1,3,5]triazin-6-yl)-N-(4-cyclopropylpyridin-2-yl)benzamide]	–	< 100	–
CC#CC(=O)N1CCC(c2nc(-c3ccc(C(=O)Nc4cc(C5CC5)ccn4)cc3)n3c(N)nccc23)C1 (centres unmarked) [C239, 4-(5-amino-1-(1-(but-2-ynoyl)pyrrolidin-3-yl)imidazo[1,5-c]pyrimidin-3-yl)-N-(4-cyclopropylpyridin-2-yl)benzamide]	–	< 100	–
CC#CC(=O)N1CCC(c2nc(-c3ccc(C(=O)Nc4cc(OC)ccn4)cc3)n3c(N)nccc23)C1 (centres unmarked) [C241, 4-(5-amino-1-(1-(but-2-ynoyl)pyrrolidin-3-yl)imidazo[1,5-c]pyrimidin-3-yl)-N-(4-methoxypyridin-2-yl)benzamide]	–	< 100	–
C=CC(=O)N1CCC(c2nc(-c3ccc(C(=O)Nc4cc(C(F)(F)F)ccn4)cc3)n3c(N)nccc23)C1 (centres unmarked) [C242, 4-(1-(1-acryloylpyrrolidin-3-yl)-5-amino-imidazo[1,5-c]pyrimidin-3-yl)-N-(4-(trifluoromethyl)pyridin-2-yl)benzamide]	–	< 100	–
C=CC(=O)N1CCCC(c2nc(-c3ccc(Oc4ccccn4)cc3)n3c(N)nccc23)C1 (centres unmarked) [C243, 1-(3-(5-amino-3-(4-(pyridin-2-yloxy)phenyl)imidazo[1,5-c]pyrimidin-1-yl)piperidin-1-yl)prop-2-en-1-one]	–	< 100	–
CC#CC(=O)N1CCCC(c2nc(-c3ccc(Oc4ccccn4)cc3)n3c(N)nccc23)C1 (centres unmarked) [C244, 1-(3-(5-amino-3-(4-(pyridin-2-yloxy)phenyl)imidazo[1,5-c]pyrimidin-1-yl)piperidin-1-yl)but-2-yn-1-one]	–	< 100	–
CC#CC(=O)N1CCC(c2nc(-c3ccc(C(=O)Nc4cc(C5CC5)ccn4)c(F)c3)n3c(N)nccc23)C1 (centres unmarked) [C247, 4-(5-amino-1-(1-(but-2-ynoyl)pyrrolidin-3-yl)imidazo[1,5-c]pyrimidin-3-yl)-N-(4-cyclopropylpyridin-2-yl)-2-fluorobenzamide]	–	< 100	–
